The results in this text go back to US9808003B2, “Herbicidally active 2-(substituted-phenyl)-cyclopentane-1,3-dione compounds and derivatives thereof” (Syngenta Limited, priority 2013, dated 2017).

What all share (format): in vivo
The subject of assay [1] is Alopecurus myosuroides (ALOMY). The assay can be described thus: Test 1A glasshouse assay, post-emergence herbicidal activity. The note with it: Alopecurus myosuroides, 312 h, application rate 250 g/ha, 13 days after application, visual (100%=total damage; 0%=no damage), read-out: Post-emergence Herbicidal Activity (% Phytotoxicity) ALOMY. The method in brief:
(§1)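 Post-emergence: plants sprayed after 8 days' glasshouse growth (24/16° C, 14 h light, 65% humidity) with acetone/water (50:50) formulation containing 0.5% Tween 20. Visual % phytotoxicity (0 = none, 100 = total damage) scored 13 days after application.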

For assay [2], the system named is Avena fatua (AVEFA). The assay is described as above. The conditions noted are these: Avena fatua, 312 h, application rate 250 g/ha, 13 days after application, visual (100%=total damage; 0%=no damage), read-out: Post-emergence Herbicidal Activity (% Phytotoxicity) AVEFA. Summed up:
as §1

Assay [3] concerns Echinochloa crus-galli (ECHCG). The description is as above. The note with it: Echinochloa crus-galli, 312 h, application rate 250 g/ha, 13 days after application, visual (100%=total damage; 0%=no damage), read-out: Post-emergence Herbicidal Activity (% Phytotoxicity) ECHCG. Summed up: as §1
Assay [4] has as its system Lolium perenne (LOLPE). Described as above. The conditions noted are these: Lolium perenne, 312 h, application rate 250 g/ha, 13 days after application, visual (100%=total damage; 0%=no damage), read-out: Post-emergence Herbicidal Activity (% Phytotoxicity) LOLPE. Summed up:
as §1

The test system of assay [5] is Alopecurus myosuroides (ALOMY). The assay can be described thus: Test 1A glasshouse assay, pre-emergence herbicidal activity. The conditions noted are these: 312 h, 13 days after application, read-out: Pre-emergence herbicidal activity (% phytotoxicity) ALOMY. How it is done: (§2) Seeds of a variety of test species were sown in standard soil in pots. After cultivation for one day (pre-emergence) or after 8 days cultivation (post-emergence) under controlled conditions in a glasshouse (at 24/16° C., day/night; 14 hours light; 65% humidity), the plants were sprayed with an aqueous spray solution derived from the formulation of the technical active ingredient in acetone/water (50:50) solution containing 0.5% Tween 20 (polyoxyethelyene sorbitan monolaurate, CAS RN 9005-64-5). The test plants were then grown under controlled conditions in a glasshouse (at 24/16° C., day/night; 14 hours light; 65% humidity) and watered twice daily. 13 days after application of the test herbicide, for pre- and post-emergence, the test was evaluated visually for percentage phytotoxicity to the plant (where 100%=total damage to plant; 0%=no damage to plant).
(§3) Test plants: Lolium perenne (LOLPE), Alopecurus myosuroides (ALOMY), Echinochloa crus-galli (ECHCG), and Avena fatua (AVEFA); these are all grassy monocotyledonous weeds.

Assay [6] concerns Avena fatua (AVEFA). The description is as above. The note with it: 312 h, 13 days after application, read-out: Pre-emergence herbicidal activity (% phytotoxicity) AVEFA. On the procedure: as §2, §3
Assay [7] deals with Echinochloa crus-galli (ECHCG). The assay is described as above. The conditions noted are these: 312 h, 13 days after application, read-out: Pre-emergence herbicidal activity (% phytotoxicity) ECHCG. On the procedure: as §2, §3
Assay [8] has as its system Lolium perenne (LOLPE). The assay is described as above. The conditions noted are these: 312 h, 13 days after application, read-out: Pre-emergence herbicidal activity (% phytotoxicity) LOLPE. How it is done:
as §2, §3

In assay [9] the test system is Alopecurus myosuroides (ALOMY). In words: Test 1B glasshouse assay, post-emergence herbicidal activity against grassy weeds. The note with it: 14 DAA. Summed up: (§4)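 Percent phytotoxicity (0–100%, 1% steps) was scored visually 14 days after spraying, as the mean of duplicates. Plants grown 14 days under glasshouse control received the herbicide post-emergence, typically 60–120 g/ha with or without 50 g/ha cloquintocet-mexyl safener, in spray containing 0.5% v/v Adigor.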

The subject of assay [10] is Avena fatua (AVEFA). Described as above. The conditions noted are these: 14 DAA. The method in brief:
as §4

Assay [11] concerns Lolium multiflorum (LOLMU). Described as above. The conditions noted are these: 14 DAA. Summed up: as §4
Assay [12] has as its system Poa annua (POAAN). Described as above. The note with it: 14 DAA. Summed up:
as §4

In assay [13] the test system is Setaria viridis (SETVI). Described as above. The note with it: 14 DAA. The method in brief: as §4
Assay [14] has as its system Spring Barley “Harrington”. The assay can be described thus: Test 1B glasshouse assay, post-emergence herbicidal activity against cereal crops. The method in brief: (§5)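 Technical compound in IF50 with acetone, diluted into 0.5% v/v Adigor, sprayed post-emergence on 14-day glasshouse plants (22/16 °C, 16 h light, 65% humidity), typically at 60, 90 or 120 g/ha, with or without 50 g/ha cloquintocet-mexyl safener. Phytotoxicity scored visually 14 DAA (0–100%), mean of two replicates.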

Assay [15] concerns Winter Barley “Suzuka”. The assay is described as above. The method in brief: as §5
The test system of assay [16] is Winter Wheat “Hereward”. The description is as above. Summed up:
as §5

Assay [17] has as its system Spring Wheat “Freya”. The assay is described as above.
The mark [18] stands for this setting: 30 g/ha herbicide, 50 g/ha cloquintocet-mexyl.
Where [19] appears, read: 45 g/ha herbicide, 50 g/ha cloquintocet-mexyl.
The mark [20] stands for this setting: 60 g/ha herbicide, 0 g/ha cloquintocet-mexyl.
The mark [21] stands for this setting: 60 g/ha herbicide, 50 g/ha cloquintocet-mexyl.
Where [22] appears, read: herbicide 30 g/ha, cloquintocet-mexyl 50 g/ha.
Setting [23] is: herbicide 45 g/ha, cloquintocet-mexyl 50 g/ha.
[24] abbreviates: herbicide 60 g/ha, cloquintocet-mexyl 0 g/ha.
Where [25] appears, read: herbicide 60 g/ha, cloquintocet-mexyl 50 g/ha.

SMILES strings stand for the structures.

As for `Cc1cc(C)c(C2C(=O)CC(CCNC(=O)c3ccccc3)C2=O)c(C)c1` (stereo not shown) [Compound A1, N-[2-[2,4-dioxo-3-(2,4,6-trimethylphenyl)cyclopentyl]ethyl]-benzamide], the pest or weed control at 250 g/ha amounted to 80% in assay [1], 90% in assay [2], 100% in [3] and 100% in assay [4]. The inhibition at 1000 g/ha in assay [5] (1000 g/ha) was 90%; in [6] (1000 g/ha), 70%; in assay [7] (1000 g/ha), 100%; in assay [8] (1000 g/ha), 100%.

Turning to `Cc1cc(C)c(C2C(=O)CC(CCNC(=O)C(C)(C)C)C2=O)c(C)c1` (stereo not shown) [Compound A2], the pest or weed control at 250 g/ha is 90% in [1], 80% in assay [2], 80% in assay [3] and 100% in [4]. Besides, the inhibition at 250 g/ha in [5] came to 90%; in [6], 70%; in assay [7] it was 70%; in [8] it was 100%.

As for `Cc1cc(C)c(C2C(=O)CC(CCNC(=O)c3ccccn3)C2=O)c(C)c1` (stereo not shown) [Compound A3], the pest or weed control at 250 g/ha in assay [1] is 90%; in assay [2], 100%; in assay [3], 100%; in [4], 100%. For the same compound, the inhibition at 250 g/ha in [5] worked out at 90%; in assay [6], 90%; in assay [7], 100%; in [8] it was 100%.

In the case of `Cc1cc(C)c(C2C(=O)CC(CCNC(=O)C3CCCCC3)C2=O)c(C)c1` (stereo not shown) [Compound A13], the pest or weed control at 250 g/ha was 70% in assay [1], 70% in [2], 100% in [3] and 90% in assay [4]. The inhibition at 250 g/ha is 80% in assay [5], 80% in assay [6], 100% in assay [7] and 90% in assay [8].

Turning to `Cc1cc(C)c(C2C(=O)CC(CCNC(=O)c3ccc(F)cc3)C2=O)c(C)c1` (stereo not shown) [Compound A19], the pest or weed control at 250 g/ha came to 80% in assay [1], 70% in assay [2], 100% in [3] and 100% in assay [4]. In addition, the inhibition at 250 g/ha in assay [5] was determined as 90%; in [6], 50%; in assay [7], 100%; in assay [8], 100%.

With `Cc1cc(-c2ccc(F)cc2)cc(C)c1C1C(=O)CC(CCNC(=O)c2ccccn2)C1=O` (stereo not shown) [Compound A32], the pest or weed control at 250 g/ha in assay [1] is 90%; in assay [2], 100%; in assay [3] it was 100%; in [4] it was 100%. For the same compound, the inhibition at 250 g/ha in assay [5] is 100%; in assay [6], 80%; in assay [7], 100%; in assay [8] it was 100%.

With `CC#Cc1cc(C)c(C2C(=O)CC(CCNC(=O)c3ccccn3)C2=O)c(C)c1` (stereo not shown) [Compound A33], the pest or weed control at 250 g/ha is 90% in [1], 100% in [2], 100% in assay [3] and 100% in [4]. For the same compound, the inhibition at 250 g/ha was 90% in assay [5], 80% in assay [6], 100% in [7] and 100% in [8].

Take `Cc1cc(C)c(C2C(=O)C[C@H](CCNC(=O)c3cc(Cl)ccn3)C2=O)c(C)c1` (stereo partly shown) [Compound A128]: the “Post-emergence herbicidal activity, percentage phytotoxicity, ALOMY” value stood at 3% in assay [9] (setting [18]), 25% in assay [9] (setting [19]), 48% in assay [9] (setting [20]) and 35% in [9] (setting [21]). Moreover, the “Post-emergence herbicidal activity, percentage phytotoxicity, AVEFA” value in [10] (setting [18]) is listed as 0%; in assay [10] (setting [19]), 3%; in assay [10] (setting [20]), 18%; in [10] (setting [21]), 10%. For the same compound, the “Post-emergence herbicidal activity, percentage phytotoxicity, LOLMU” value in [11] (setting [18]) came out at 43%; in [11] (setting [19]) it was 63%; in [11] (setting [20]), 85%; in [11] (setting [21]) it was 78%. In addition, the “Post-emergence herbicidal activity, percentage phytotoxicity, POAAN” value in assay [12] (setting [18]) came out at 0%; in [12] (setting [19]), 0%; in assay [12] (setting [20]) it was 5%; in [12] (setting [21]) it was 0%. The “Post-emergence herbicidal activity, percentage phytotoxicity, SETVI” value in assay [13] (setting [18]) came to 23%; in assay [13] (setting [19]), 43%; in assay [13] (setting [20]) it was 55%; in assay [13] (setting [21]), 63%. The “Percentage Phytotoxicity Spring Barley “Harrington”” value was determined as 0% in [14] (setting [22]), 0% in assay [14] (setting [23]), 48% in assay [14] (setting [24]) and 0% in [14] (setting [25]). Further, the “Percentage Phytotoxicity Winter Barley “Suzuka”” value in assay [15] (setting [22]) was 0%; in assay [15] (setting [23]), 0%; in [15] (setting [24]), 18%; in assay [15] (setting [25]) it was 0%. The “Percentage Phytotoxicity Winter Wheat “Hereward”” value came to 0% in assay [16] (setting [22]), 0% in assay [16] (setting [23]), 8% in [16] (setting [24]) and 0% in assay [16] (setting [25]). Besides, the “Percentage Phytotoxicity Spring Wheat “Freya”” value in [17] (setting [22]) came to 3%; in assay [17] (setting [23]), 0%; in assay [17] (setting [24]), 7%; in assay [17] (setting [25]), 3%.

Take `Cc1cc(C)c(C2C(=O)CC(CCNC(=O)c3c(Cl)c(C)nn3C)C2=O)c(C)c1` (stereo not shown) [Compound A145]: the pest or weed control at 250 g/ha was determined as 100% in assay [1], 90% in assay [2], 90% in assay [3] and 90% in assay [4]. The inhibition at 250 g/ha was 90% in [5], 40% in assay [6], 90% in assay [7] and 100% in assay [8].
